Test results: patent publication US5256528A, “Magenta image-dye couplers of improved hue” (Eastman Kodak Company, priority 1992, dated 1993)
Each block holds one molecule with its values, some of them ahead of it.

Key:
[1] = Photographic gamma (slope of status M green density vs. exposure), C-41 process
Procedure: (§1) Dispersions of the comparative couplers B1-B3 and B8 and of the couplers of this invention M1-M3 were prepared by dissolving the coupler in the coupler solvent S1 plus the auxiliary solvent 2-(2-butoxyethoxy)ethyl acetate and then dispersing this oil phase in an aqueous solution of gelatin and surfactant using an ultrasonic probe. The dispersions were chilled and washed for 6 hr at 4° C. to remove the auxiliary solvent. The dispersions contained approximately 8.8% coupler, 4.4% S1 and 6% gelatin by weight.
(§2) The dispersions were coated at 1.04 mmole/sq m together with a silver bromoiodide emulsion on a transparent acetate support in the format shown below. Hardened film strips were exposed through a 0-4 neutral density stepwedge and daylight V and WRATTEN 9 filters and subjected to a standard C-41 process at 37.8° C. The process consists of 2.5 min in color developer, 4 min in a ferric EDTA/PDTA bleach solution, 2 min wash, 4 min fix and 2 min final wash. Photographic gamma values were obtained from the slopes of plots of status M green density vs. exposure for processed samples. Absorption spectra of the dye-containing processed films were measured at a density near 1.0 on a spectrophotometer and the wavelengths of maximum absorption (λ max values) were recorded.
(§3) BVSM* Hardener 0.06 g/sq m
(§4) Coupler Solvent S1 1/2 coupler laydown
(§5) Dispersions of couplers B3, M1 and M5 with S1 (1:0.5) were prepared and coated as in Example 2. Film strips of these coatings were exposed, processed and analyzed as in Example 2. λmax values and gamma values associated with these film compositions are listed in Table III. This series further illustrates the use of electron-withdrawing substituents to obtain magenta dyes of the proper hue.
(§6) Dispersions of the comparative couplers B4, B5 and B8 and the couplers of this invention M6-M11 were prepared and coated as in Example 2. The coupler solvent S1 was again used at a 1:0.5 coupler:S1 weight ratio. Film strips of the hardened coatings were exposed, processed and analyzed as in Example 2. Couplers B4 and M6-M8 have a strongly electron-withdrawing alkoxycarbonyl substituent in the R2 position and couplers B5 and M9-M11 have a strongly electron-withdrawing alkylsulfonyl group at R2. […] The couplers of this invention, M6-M11, which have strong electron-withdrawing groups in each ring, yield dyes having the desired bathochromic hues, as shown by the λmax values. The gamma values obtained with the couplers of this invention are suitably high to be useful in photographic materials, as indicated by comparison to the gamma obtained from the commercial coupler B8.
(§7) Dispersions of the comparison couplers B6 and B7, and of the couplers of this invention M12-M17, were prepared using the coupler solvent Sl as in Example 2. These were coated as in Example 2, and hardened film strips were exposed, processed and analyzed as in Example 2. The results obtained are summarized in Table V. In this example all of the couplers have sulfamoyl or alkylsulfonyl substituents in the R1 position and the R2 substituent on the 3-anilino ring is varied. Comparative couplers B6 and B7 have chloro substituents at R2, whereas M12-M17 of this invention have strong electron withdrawing R2 groups. […] The gamma values of the couplers of this invention are similar to those of the comparative couplers.

[2] = Absorption spectra of dye-containing processed films (λmax), C-41 process; format: physicochemical
Procedure: as §1, §2, §3, §4, §5, §6, §7

[3] = Table V, Example 6, coupler solvent S1
[4] = Table IV, Example 5, coupler:S1 1:0.5
[5] = Table I, Example 2, coupler:S1 1:0.5

SMILES: CCCCCCCCCCCCS(=O)(=O)c1cc(Cl)c(N2N=C(Nc3ccc(Cl)cc3Cl)C(Sc3cc(C(C)(C)CC(C)(C)C)ccc3OCCCC)C2=O)c(Cl)c1 (centres unmarked) [Coupler B7, reference compound]
- Gamma [1, 3]: 3.3

- λmax(nm) (+-0.5) [2, 4]: 551.0 nm
SMILES: CCCCCCCCCCCCS(=O)(=O)c1ccc(NC2=NN(c3c(Cl)cc(S(=O)(=O)N4CCOCC4)cc3Cl)C(=O)C2Sc2cc(C(C)(C)CC(C)(C)C)ccc2OCCCC)c(Cl)c1 (centres unmarked) [Coupler M9]
- Gamma [1, 4]: 3.2

SMILES: CCCCCCCCCCCCS(=O)(=O)c1ccc(NC2=NN(c3c(Cl)cc(Cl)cc3Cl)C(=O)C2Sc2cc(C(C)(C)CC(C)(C)C)ccc2OCCCC)c(Cl)c1 (centres unmarked) [Coupler B5, reference compound]
- Gamma [1, 4]: 4.2

- λmax(nm) (+-0.5) [2, 3]: 550.5 nm
SMILES: CCCCCCCCCCCCS(=O)(=O)c1cc(Cl)c(N2N=C(Nc3ccc(S(C)(=O)=O)cc3Cl)C(Sc3cc(C(C)(C)CC(C)(C)C)ccc3OCCCC)C2=O)c(Cl)c1 (centres unmarked) [Coupler M16]
- Gamma [1, 3]: 3.2

- λmax(nm) (+-0.5) [2, 5]: 551.5 nm
SMILES: CCCCCCCCCCCCNS(=O)(=O)c1ccc(NC2=NN(c3c(Cl)cc(S(=O)(=O)N4CCOCC4)cc3Cl)C(=O)C2Sc2ccccc2N(C)C(=O)CCCCCCCCCCC)c(Cl)c1 (centres unmarked) [Coupler M2]
- Gamma [1, 5]: 3.9

SMILES: CCCCCCCCCCCCOC(=O)c1ccc(NC2=NN(c3c(Cl)cc(Cl)cc3Cl)C(=O)C2Sc2cc(C(C)(C)CC(C)(C)C)ccc2OCCCC)c(Cl)c1 (centres unmarked) [Coupler B4, reference compound]
- Gamma [1, 4]: 4.1

- λmax(nm) (+-0.5) [2, 5]: 539.5 nm
SMILES: CCCCCCCCCCCCNS(=O)(=O)c1ccc(NC2=NN(c3c(Cl)cc(OC)cc3Cl)C(=O)C2Sc2cc(C(C)(C)CC(C)(C)C)ccc2OCCCC)c(Cl)c1 (centres unmarked) [Coupler B1, reference compound]
- Gamma [1, 5]: 4.8

- λmax(nm) (+-0.5) [2, 4]: 551.0 nm
SMILES: CCCCCCCCCCCCS(=O)(=O)c1ccc(NC2=NN(c3c(Cl)cc(S(C)(=O)=O)cc3Cl)C(=O)C2Sc2cc(C(C)(C)CC(C)(C)C)ccc2OCCCC)c(Cl)c1 (centres unmarked) [Coupler M10]
- Gamma [1, 4]: 3.2

SMILES: CCCCCCCCCCCCNS(=O)(=O)c1cc(Cl)c(N2N=C(Nc3ccc(Cl)cc3Cl)C(Sc3cc(C(C)(C)CC(C)(C)C)ccc3OCCCC)C2=O)c(Cl)c1 (centres unmarked) [Coupler B6, reference compound]
- Gamma [1, 3]: 3.4

- λmax(nm) (+-0.5) [2, 3]: 550.5 nm
SMILES: CCCCCCCCCCCCS(=O)(=O)c1cc(Cl)c(N2N=C(Nc3ccc(C#N)cc3Cl)C(Sc3cc(C(C)(C)CC(C)(C)C)ccc3OCCCC)C2=O)c(Cl)c1 (centres unmarked) [Coupler M17]
- Gamma [1, 3]: 3.5

- λmax(nm) (+-0.5) [2, 4]: 548.5 nm
SMILES: CCCCCCCCCCCCOC(=O)c1ccc(NC2=NN(c3c(Cl)cc(C#N)cc3Cl)C(=O)C2Sc2cc(C(C)(C)CC(C)(C)C)ccc2OCCCC)c(Cl)c1 (centres unmarked) [Coupler M8]
- Gamma [1, 4]: 4.1

- λmax(nm) (+-0.5) [2, 3]: 549.5 nm
SMILES: CCCCCCCCCCCCNS(=O)(=O)c1cc(Cl)c(N2N=C(Nc3ccc(S(C)(=O)=O)cc3Cl)C(Sc3cc(C(C)(C)CC(C)(C)C)ccc3OCCCC)C2=O)c(Cl)c1 (centres unmarked) [Coupler M13]
- Gamma [1, 3]: 3.9

SMILES: CCCCCCCCCCCCNS(=O)(=O)c1ccc(NC2=NN(c3c(Cl)cc(C#N)cc3Cl)C(=O)C2Sc2cc(C(C)(C)CC(C)(C)C)ccc2OCCCC)c(Cl)c1 (centres unmarked) [Coupler M5]
- Gamma ([1]; Table III, Example 4, coupler:S1 1:0.5): 3.8

- λmax(nm) (+-0.5) [2, 5]: 551.0 nm
SMILES: CCCCCCCCCCCCNS(=O)(=O)c1ccc(NC2=NN(c3c(Cl)cc(S(=O)(=O)N4CCOCC4)cc3Cl)C(=O)C2Sc2ccccc2N(CCCCCCCCCCCC)C(=O)C(C)(C)C)c(Cl)c1 (centres unmarked) [Coupler M3]
- Gamma [1, 5]: 4.4

- λmax(nm) (+-0.5) [2, 5]: 555.0 nm
- λmax(nm) (+-0.5) [2, 4]: 553.0 nm
SMILES: CCC(C)(C)c1ccc(OCC(=O)Nc2cccc(C(=O)NC3=NN(c4c(Cl)cc(Cl)cc4Cl)C(=O)C3)c2)c(C(C)(C)CC)c1 [Coupler B8, reference compound]
- Gamma [1, 5]: 2.3
- Gamma [1, 4]: 2.0

- λmax(nm) (+-0.5) [2, 3]: 550.5 nm
SMILES: CCCCCCCCCCCCNS(=O)(=O)c1cc(Cl)c(N2N=C(Nc3ccc(C#N)cc3Cl)C(Sc3cc(C(C)(C)CC(C)(C)C)ccc3OCCCC)C2=O)c(Cl)c1 (centres unmarked) [Coupler M14]
- Gamma [1, 3]: 3.1
